Earlier results as cited in patent US20070099940A1, “Pth agonists” (priority 2004, published 2007).

Test system: fracture incidence
Conditions: daily subcutaneous injection for up to 2 years, postmenopausal women

CC[C@H](C)[C@H](NC(=O)[C@H](CCC(=O)O)NC(=O)[C@H](CO)NC(=O)[C@@H](NC(=O)[C@@H](N)CO)C(C)C)C(=O)N[C@@H](CCC(N)=O)C(=O)N[C@@H](CC(C)C)C(=O)N[C@@H](CCSC)C(=O)N[C@@H](Cc1cnc[nH]1)C(=O)N[C@@H](CC(N)=O)C(=O)N[C@@H](CC(C)C)C(=O)NCC(=O)N[C@@H](CCCCN)C(=O)N[C@@H](Cc1cnc[nH]1)C(=O)N[C@@H](CC(C)C)C(=O)N[C@@H](CC(N)=O)C(=O)N[C@@H](CO)C(=O)N[C@@H](CCSC)C(=O)N[C@@H](CCC(=O)O)C(=O)N[C@@H](CCCN=C(N)N)C(=O)N[C@H](C(=O)N[C@@H](CCC(=O)O)C(=O)N[C@@H](Cc1c[nH]c2ccccc12)C(=O)N[C@@H](CC(C)C)C(=O)N[C@@H](CCCN=C(N)N)C(=O)N[C@@H](CCCCN)C(=O)N[C@@H](CCCCN)C(=O)N[C@@H](CC(C)C)C(=O)N[C@@H](CCC(N)=O)C(=O)N[C@@H](CC(=O)O)C(=O)N[C@H](C(=O)N[C@@H](Cc1cnc[nH]1)C(=O)N[C@@H](CC(N)=O)C(=O)N[C@@H](Cc1ccccc1)C(=O)O)C(C)C)C(C)C [PTH(1-34)]
reduction of fracture incidence at non-vertebral sites: 40% | reduction of fracture incidence at the spine: 65%
